What is called melting point is the temperature, or range, at which the solid turns liquid.

Bounds are passed on as bounds.

As to `COP(=O)(OC)C(NC=O)P(=O)(OC)OC`, the melting point stood at 95 °C.

`CC(C)n1c(=O)n(C)c(=O)c2c(S(=O)(=O)CCCO)n(C3Cc4ccccc4C3)cc21` had a melting point of 171 to 172 °C.

In turn, `CC(C)c1ccc(N(Cc2ccc(OCc3ccccc3)cc2)C(=O)C2CCCc3ccccc32)cc1` (configuration not stated) displayed a melting point of 120 to 121 °C.

In the case of `OCc1ccc(C23CNCC2C3)cc1` (configuration not stated), the melting point was in the range of 80 to 82 °C.

As to `COC(OC)C(=O)NC(Cc1ccccc1)c1ccccc1` (configuration not stated), the melting point lay within 108 to 110 °C.

`CN1Cc2c(C(=O)OCCO)ncn2-c2ccccc2C1=O` had a melting point of 222 to 223 °C.

`CCOC(=O)c1c(Nc2cc(F)ccc2N)sc2ccccc12` came in with a melting point of 141 to 142 °C.

`COC1(c2ccccc2)N=CC(=O)N(C)c2ccc([N+](=O)[O-])cc21` (configuration not stated) yielded a melting point of 163 to 164 °C.

`Cc1c(-c2ccccc2)[nH]c(=O)n1C1CCN(Cc2cccc(I)c2)CC1` showed a melting point of 269 to 271 °C.

`CCCCCCCCCCCCCCCCCCOc1cc(NC(C)=O)cc(N(CC(=O)OCc2ccccc2)CC(=O)OCc2ccccc2)c1` yielded a melting point of 89 to 90 °C.

`Cc1ncc(CO)c(NCc2ccc(-c3ccccc3-c3nnnn3C(c3ccccc3)(c3ccccc3)c3ccccc3)cc2)n1` registered a melting point of 112 to 114 °C.

Molecule `CC(C)(C)c1cc(C(=O)CBr)cc2c1OCC2(C)C` came in with a melting point of 54 to 56 °C.

The molecule `Cc1ccc(N(c2ccc(C)cc2)c2c(C)cc(-c3cc(C)c(N(c4ccc(C)cc4)c4ccc5ccc6cccc7ccc4c5c67)c(C)c3)cc2C)cc1` yielded a melting point of 198 to 199 °C.

Take `CCCCCCCCNC(=O)Nc1ccccc1C(=O)NCC1CCN(C(c2ccccc2)c2ccccc2)CC1`: the melting point was 155 to 157 °C.

The molecule `CCCCCCc1sc(C(N)=O)c2c1-c1nn(C)cc1CC2` came in with a melting point of 194 to 195 °C.

Molecule `Cc1ccc(-c2ccc(S(C)(=O)=O)cc2)n1-c1ccc(-c2ccc[nH]2)cc1` yielded a melting point of 225 to 227 °C.

Consider `CC(O)c1cc2c3ccccc3[nH]c(=O)n2n1` (configuration not stated), for which the melting point lay within 242 to 245 °C.

In turn, `COCCO[C@@H]1c2ccn3c(Br)c(C)nc3c2N[C@H](c2ccccc2)[C@H]1O` came in with a melting point of 153 to 154 °C.

As for `Cn1ncc2c(C(F)(F)F)cc(Cl)nc21`, the melting point was found to be 123 °C.

Turning to `CNCCc1ccc(-c2ccc(OC(C)C(O)CCc3cccnc3)cc2)cc1` (configuration not stated), the melting point lay in the range of 113 to 114 °C.

`CC1(C)Oc2c(ccc(Cl)c2N)C1=O`: the melting point lay within 91.5 to 93.5 °C.

With `CCOC(=O)Nc1nc2cc(-c3cccnc3)cc(-c3ccccn3)c2s1`, the melting point amounted to 235 °C.

As for `N#Cc1ccc(-c2ccc(C(=O)NCCCCN3CCC(c4ccc5ccccc5c4O)CC3)cc2)cc1`, the melting point lay within 135 to 140 °C.

`Cc1ccccc1NC(=O)NC1N=C(c2ccccc2F)c2ccccc2N(CC(=O)N2CC3CCC(CC3)C2)C1=O` (racemic): the melting point lay in the range of 167 to 172 °C.

As for `CCCn1nc2c(N)nc3ccccc3c2c1CCNC(=O)C1CC1`, the melting point lay within 215 to 217 °C.

Turning to `Cc1cccc2c(=O)c(CS(C)(=O)=O)cn(C)c12`, the melting point is 244 to 246 °C.

In turn, `Cc1nc(-c2cc3cc(OCCNC[C@H](O)COc4ccccc4Cl)ccc3o2)no1` showed a melting point of 106 to 108 °C.

Regarding `COCCN1CCc2cc(Nc3ncc(Cl)c(Nc4ccccc4S(=O)(=O)N(C)C)n3)c(OC)cc2CC1`, the melting point was 54 to 64 °C.

Consider `ClCCOc1ccc2c(c1)CCC2`, for which the melting point lay in the range of 45 to 46 °C.

For the molecule `Cc1c(NC(=O)CC(C)(C)C)c(C)c2c(c1-c1ccc(N(C)C)nc1)OCC2c1ccc(C(C)C)cc1` (configuration not stated), the melting point was in the range of 217 to 220 °C.

In turn, `CC(c1ccc(F)cc1)N1CCN(c2cc(Oc3cccc4ccncc34)ncn2)CC1` (configuration not stated) had a melting point of 114 °C.

For the molecule `CC(C(=O)c1ccccc1)N1CCN(c2nc3nccc(-c4ccncc4)n3n2)CC1` (configuration not stated), the melting point fell in the range of 142 to 144 °C.

Turning to `CCC(CC)c1ccc(Cl)c2nc(Nc3ccc(OC)nc3OC)n(CCCCO)c12`, the melting point lay within 116 to 118 °C.

For `CCOC(=O)C1=C(C)NC(c2ncc[nH]2)=NC1c1ccc(F)cc1Cl` (configuration not stated), the melting point lay in the range of 157 to 162 °C.

The molecule `O=C(c1ccc2c(c1)OCCOCCOCCOCCOCCO2)c1ccccn1` came in with a melting point of 78 to 80 °C.

Molecule `O=c1[nH]c2ccc(O)cc2n1CCN1CCN(c2cccc(C(F)(F)F)c2)CC1` returned a melting point above 250 °C.

In turn, `N#Cc1cccc(C(=O)c2ccccc2)c1` showed a melting point of 84 to 85 °C.

As to `CNC(=O)CCc1nc(-c2ccc(Cl)cc2)co1`, the melting point was in the range of 169 to 170 °C.

Molecule `Nc1ccnc(-c2nc(=O)c3ccccc3s2)c1` registered a melting point of 208 °C.

`CCCc1cc(C(C)=O)c(O)cc1OCCCCC(=O)O` registered a melting point of 106 °C.

Molecule `CN(C)CCCN(C)C(=O)c1cc([N+](=O)[O-])c[nH]1` displayed a melting point of 118 to 120 °C.

In the case of `O=C(O)c1cc(-c2ccc(Cl)cc2)n(-c2ccc(Cl)cc2Cl)n1`, the melting point worked out at 185 °C.

The molecule `O=C(C#Cc1ccc(Cl)cc1Cl)Nc1ccc2oc(CCN3CCCC3)nc2c1` displayed a melting point of 130 °C.

As for `O=C(c1cc(C(F)(F)F)cc(C(F)(F)F)c1)N1CCC(Nc2nc3cccnc3n2Cc2ccco2)CC1Cc1ccccc1` (configuration not stated), the melting point was determined as 109 °C.

Turning to `O=C1C(CCO)Oc2ccccc2N1Cc1cccc([N+](=O)[O-])c1` (configuration not stated), the melting point lay within 128 to 130 °C.

`O=C(Cc1ccc(Cl)c(Cl)c1)N1CCC2(CC1CN1CCCC1)SCCS2` (configuration not stated) displayed a melting point of 119 to 120 °C.

`COc1cc(CCCO)ccc1OCc1nc(-c2ccco2)oc1C` came in with a melting point of 99 to 100 °C.

`CCOC(=O)C(C#N)=CN(C)C1CCCCC1` registered a melting point of 71 to 72 °C.

In turn, `N#Cc1nn(-c2c(Cl)cc(C(F)(F)F)cc2Cl)c(C(O)C(F)(F)F)c1SC(F)(F)F` (configuration not stated) yielded a melting point of 106 °C.

As for `O=C(O)C(=O)c1ccc(OCCCCCCOc2ccccc2)cc1`, the melting point lay within 121 to 122 °C.

In the case of `CN(C)c1ccc(-c2nc(Cl)c(C#N)n2Cc2ccccc2)cc1`, the melting point was in the range of 125 to 127 °C.

`COc1ccc(-c2ccc(C(=O)c3ccccc3)cc2)cc1` displayed a melting point of 167 to 168 °C.

Take `CCn1cc(C(=O)OCC(=O)O)c(=O)c2cc3c(cc21)OCO3`: the melting point was in the range of 240 to 243 °C.

The molecule `CCc1c(OC)nc(OC)nc1C(=O)c1cc(Cl)cc(Cl)c1` returned a melting point of 118 to 119 °C.

On to `CC(=O)c1c(SSc2c(C(C)=O)c3ccccc3n2C)n(C)c2ccccc12`, for which the melting point lay in the range of 178 to 180 °C.

Molecule `Cc1c(C(=O)Nc2ccc(N3CCC(N4CCSCC4)CC3)c(C#N)c2)cnn1-c1ccc(Cl)cc1` yielded a melting point of 256 °C.

Turning to `CC1(C)Cc2sc3c(c2C1)CCNC3=O`, the melting point is 205 to 207 °C.

`Cn1c(=O)n(Cc2ccccc2)c(=O)c2cc(C(=O)NCc3ccc4c(c3)OCO4)ccc21` registered a melting point of 215 °C.

As for `CCCCN(C(=O)NCCCCCCNC(=O)N(CCCC)C1CC(C)(CC)NC(C)(CC)C1C)C1CC(C)(CC)NC(C)(CC)C1C` (configuration not stated), the melting point worked out at 146 °C.

Turning to `COc1ccc(C(C)NC2=Nc3ccc(Cl)cc3C(=O)N(C)C2)cc1OC` (configuration not stated), the melting point was in the range of 175 to 178 °C.

For `N#CC1CC2(c3ccccc3)SC13c1ccccc1CCN3C2=O` (configuration not stated), the melting point lay in the range of 225 to 226 °C.

Take `CC(C)C[C@@H](C#N)NC(=O)[C@@H]1CCCC[C@@H]1NC(=O)c1ccc2ncsc2c1`: the melting point was 200 to 201 °C.

Molecule `N#Cc1ccn2c1CSC2c1cccnc1` (configuration not stated) yielded a melting point of 110 °C.

`CCCn1nc(-c2ccc(O)c(Cl)c2)c2cccc(Cl)c21` displayed a melting point of 145 to 146 °C.

The molecule `COC(=O)C1OC(OC(=N)C(Cl)(Cl)Cl)C(OC(C)=O)C(OC(C)=O)C1OC(C)=O` (configuration not stated) displayed a melting point of 108 °C.

The molecule `COc1ccccc1C1C(C#N)=C(c2ccccc2)Nc2n[nH]cc21` (configuration not stated) gave a melting point of 206 °C.

In the case of `COC(=O)CNC(=O)C1CSSC1`, the melting point was in the range of 73 to 75 °C.

Take `COc1ccccc1C1(O)c2cc(NC(=O)CC(C)(C)C)c(C)c(C)c2OC1(C)C` (configuration not stated): the melting point was 168 to 169 °C.

`COc1cc(C=Cc2ccc(Cl)nn2)cc(OC)c1OC` came in with a melting point of 162 to 164 °C.

In turn, `CC(C)(C)c1cc(-c2n[nH]c(=O)s2)cc(C(C)(C)C)c1O` registered a melting point of 229 °C.

Take `NC(=O)C1CCc2c(sc3cc(F)ccc23)C1` (configuration not stated): the melting point fell in the range of 184 to 185 °C.

As for `O=C1NCCN1c1ccccc1`, the melting point lay in the range of 154 to 156 °C.

`CCCc1noc(/C=C/c2cn(-c3ccccc3)nc2OCc2ccc(OCc3nc(-c4ccco4)oc3C)c(OC)c2)n1` had a melting point of 192 to 193 °C.

`CCCCCCCCCCCCCc1c[nH]c(C(=O)O)c1` registered a melting point of 150 to 151 °C.

Molecule `COc1c(Cl)cc(C(C)(C)N2CC(C)=C(c3ccccc3)C2=O)cc1Cl` displayed a melting point of 136 to 139 °C.

`COc1ccc(-c2c(C(N)=O)c3n(c2Cl)CCN(C(=O)OC(C)(C)C)C3)cc1` had a melting point of 188 °C.

`CCCCCc1ccc(C=Nc2ccc(C#N)cc2)cc1` gave a melting point of 45.6 to 46.4 °C.

Molecule `O=c1ccn(Cc2ccccc2)c(=O)[nH]1` yielded a melting point of 168 to 170 °C.

For the molecule `CNS(=O)(=O)c1ccc2c(c1)C=C(C(=O)O)C(C(F)(F)F)O2` (configuration not stated), the melting point lay within 208 to 209 °C.

`O=C(O)CC1CCc2c(n(Cc3ccccc3)c3ccccc23)S1` (configuration not stated) came in with a melting point of 164 to 167 °C.

Molecule `CC(=O)NC(=O)N1CC1C#N` (configuration not stated) yielded a melting point of 139 to 142 °C.

As for `N#Cc1cccc(Oc2ncccc2C(=O)NCc2ccc(-c3cccc(C(=O)O)c3)cc2F)c1`, the melting point is 200 to 202 °C.

`CC1OC(Cn2cncn2)(c2ccc(Cl)cc2Cl)CN1S(=O)(=O)c1ccc(C(F)(F)F)cc1` (configuration not stated) displayed a melting point of 188 to 190 °C.

Consider `O=C(O)c1cc(F)cc(-c2cccc3cc(Cc4cccc(C(F)(F)F)c4)sc23)c1`, for which the melting point lay within 140 to 142 °C.

In turn, `O=c1nc(-c2cccc(CN3CCCCC3)n2)sc2ccccc12` yielded a melting point of 162 to 163 °C.

As for `CSc1ncncc1C(Cl)c1ccccc1F` (configuration not stated), the melting point was in the range of 144 to 145 °C.

In turn, `CC(C)(C)OC(=O)N1CCn2c(Cl)cc(C(N)=O)c2C1` yielded a melting point of 223 to 225 °C.

For the origin of these results see a melting point compilation (Tetko et al.; mined from patent text by program, amines drawn as free bases though some values may be those of a salt).
